Test results published in patent US10981879B2, “Thioether triazolopyridine and triazolopyrimidine inhibitors of myeloperoxidase” (BRISTOL-MYERS SQUIBB COMPANY, priority 2014, dated 2021).
pIC50: −log10 of the molar value.

What follows are compounds tested against myeloperoxidase (MPO) (Homo sapiens (Human), UniProt P05164) (assay: MPO chlorination assay (APF)). Details: MPO chlorination assay, ranges given; read-out: MPO chlorination assay IC50.
myeloperoxidase (MPO), sequence (P05164 49-745): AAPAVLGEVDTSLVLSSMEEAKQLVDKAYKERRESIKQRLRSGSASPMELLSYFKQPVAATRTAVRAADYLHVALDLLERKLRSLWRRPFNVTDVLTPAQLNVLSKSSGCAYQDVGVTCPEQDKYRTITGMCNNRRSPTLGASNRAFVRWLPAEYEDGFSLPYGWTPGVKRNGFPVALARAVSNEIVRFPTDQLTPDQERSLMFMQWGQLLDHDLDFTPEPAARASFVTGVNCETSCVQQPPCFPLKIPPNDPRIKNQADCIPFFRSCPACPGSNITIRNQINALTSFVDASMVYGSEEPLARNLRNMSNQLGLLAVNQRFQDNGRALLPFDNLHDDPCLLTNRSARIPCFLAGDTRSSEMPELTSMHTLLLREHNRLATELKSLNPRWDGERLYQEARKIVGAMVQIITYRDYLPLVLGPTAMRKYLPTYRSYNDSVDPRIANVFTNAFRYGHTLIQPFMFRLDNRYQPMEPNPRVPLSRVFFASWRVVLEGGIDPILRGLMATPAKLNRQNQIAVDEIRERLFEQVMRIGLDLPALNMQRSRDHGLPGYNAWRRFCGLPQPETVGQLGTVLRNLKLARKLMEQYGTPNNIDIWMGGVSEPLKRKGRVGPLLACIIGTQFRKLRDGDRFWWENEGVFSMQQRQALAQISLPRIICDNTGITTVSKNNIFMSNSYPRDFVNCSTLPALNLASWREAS
Type: biochemical
Experimental: MPO chlorination activity was measured in 100 mM KPi (pH 7.4) by utilizing the non-fluorescent reagent Aminophenyl fluorescein (APF, Invitrogen catalog #A36003). APF is cleaved by (—OCl) to yield the fluorescent compound fluorescein. Reactions were carried out in 50 μL total volume by adding a 25 μL mixture of 200 pM myeloperoxidase and 120 mM NaCl to 100 nL inhibitor in 100% DMSO in a 384 well, non-binding surface clear bottom plate (CORNING® #3655). Enzyme, inhibitor, and chloride were preincubated for ten minutes at rt.
After the ten minute preincubation, 25 μL of an APF mixture containing […], 120 mM NaCl and 10 μM H2O2 was added to the plate using the internal dispensing system of a Hammatsu FDSS 6000. Kinetic determinations were carried out immediately on the FDSS 6000 (3 minute kinetic read, 1 read every second, ex: 485 nm, em: 535 nm). IC50 values for inhibitors were calculated by taking the slope of the linear portion of the kinetic measurement (20 seconds to ˜80-120 secs). […]
[formula] where A=minimal Y value (activity level of inhibited sample), B=maximal Y value (activity level of uninhibited sample), C=Log IC50, D=Hill Slope, x=concentration of inhibitor. EPX Bromination Assay
Compound `CC(Sc1cc(N)nc2[nH]nnc12)c1ccccc1S(C)(=O)=O` (stereo not drawn) [Example 54, 7-((1-(2-(methylsulfonyl)phenyl)ethyl)thio)-3H-[1,2,3]triazolo[4,5-b]pyridin-5-amine] has a pIC50 of 6.70 to 7.22.
For `Cn1nc(C(F)(F)F)c(CSc2cc(N)nc3[nH]nnc23)c1Cl` [Example 78, 7-(((5-chloro-1-methyl-3-(trifluoromethyl)-1H-pyrazol-4-yl)methyl)thio)-3H-[1,2,3]triazolo[4,5-b] pyridin-5-amine], the pIC50 was ≥ 7.22.
`N#Cc1ccc(OC2CC2)cc1CSc1cc(N)nc2[nH]nnc12` [Example 110, 2-(((5-amino-3H-[1,2,3]triazolo[4,5-b]pyridin-7-yl)thio)methyl)-4-cyclopropoxybenzonitrile] gave a pIC50 of 6.70 to 7.22.
`COc1cccc(-n2nc(C)c(CSc3cc(N)nc4[nH]nnc34)n2)c1` [Example 69, 7-(((2-(3-methoxyphenyl)-5-methyl-2H-1,2,3-triazol-4-yl)methyl)thio)-3H-[1,2,3] triazolo[4,5-b]pyridin-5-amine] showed a pIC50 of 6.00 to 6.70.
`Nc1cc(SCc2c(Cl)ccnc2Cl)c2nn[nH]c2n1` [Example 48, 7-(((2,4-dichloropyridin-3-yl)methyl)thio)-3H-[1,2,3] triazolo[4,5-b]pyridin-5-amine] gave a pIC50 of 6.70 to 7.22.
`Cn1nc(-c2ccccc2)c(F)c1CSc1cc(N)nc2[nH]nnc12` [Example 17, 7-(((4-Fluoro-1-methyl-3-phenyl-1H-pyrazol-5-yl)methyl)thio)-3H-[1,2,3]triazolo[4,5-b]pyridin-5-amine] was tested, and the pIC50 was ≥ 7.22.
With `N#Cc1cccc(CSc2cc(N)nc3[nH]nnc23)c1` [Example 91, 3-(((5-amino-3H-[1,2,3]triazolo[4,5-b]pyridin-7-yl)thio)methyl)benzonitrile] the pIC50 was ≥ 7.22.
For `N#Cc1ccc(Cl)cc1CSc1cc(N)nc2[nH]nnc12` [Example 73, 2-(((5-amino-3H-[1,2,3]triazolo[4,5-b]pyridin-7-yl)thio)methyl)-4-chlorobenzonitrile], the pIC50 was 6.70 to 7.22.
`N#Cc1ccc(CSc2cc(N)nc3[nH]nnc23)c(C2CC2)c1` [Example 133, 4-(((5-amino-3H-[1,2,3]triazolo[4,5-b]pyridin-7-yl)thio)methyl)-3-cyclopropylbenzonitrile] was tested, and the pIC50 was ≥ 7.22.
`Nc1cc(SCc2c(F)cccc2F)c2nn[nH]c2n1` [Example 10, 7-((2,6-Difluorobenzyl)thio)-3H-[1,2,3]triazolo[4,5-b]pyridin-5-amine] was tested, and the pIC50 was ≥ 7.22.
`Nc1cc(SCc2cnn(-c3ccccc3)c2C(F)(F)F)c2nn[nH]c2n1` [Example 114, 7-(((1-phenyl-5-(trifluoromethyl)-1H-pyrazol-4-yl)methyl)thio)-3H-[1,2,3]triazolo[4,5-b] pyridin-5-amine] was tested, and the pIC50 was 6.70 to 7.22.
In the case of `COC(=O)c1ccc2nc(CSc3cc(N)nc4[nH]nnc34)ccc2c1` [Example 31, methyl 2-(((5-amino-3H-[1,2,3]triazolo[4,5-b]pyridin-7-yl)thio)methyl)quinoline-6-carboxylate], the pIC50 was 6.00 to 6.70.
`Nc1cc(SC(c2ccccc2)C(F)(F)F)c2nn[nH]c2n1` (stereo not drawn) [Example 38, 7-((2,2,2-trifluoro-1-phenylethyl)thio)-3H-[1,2,3] triazolo[4,5-b]pyridin-5-amine] was tested, and the pIC50 was 6.00 to 6.70.
For `N#Cc1cn(-c2ccccc2)nc1CSc1cc(N)nc2[nH]nnc12` [Example 147, 3-(((5-amino-3H-[1,2,3]triazolo[4,5-b]pyridin-7-yl)thio)methyl)-1-phenyl-1H-pyrazol-4-carbonitrile], the pIC50 was 6.00 to 6.70.
In the case of `CS(=O)(=O)c1cc(Br)cc(F)c1CSc1cc(N)nc2[nH]nnc12` [Example 42, 7-((4-bromo-2-fluoro-6-(methylsulfonyl)benzyl)thio)-3H-[1,2,3]triazolo[4,5-b]pyridin-5-amine], the pIC50 was ≥ 7.22.
With `NC(=O)c1ccc(CSc2cc(N)nc3[nH]nnc23)c(F)c1` [Example 120, 4-(((5-amino-3H-[1,2,3]triazolo[4,5-b]pyridin-7-yl)thio)methyl)-3-fluorobenzamide] the pIC50 was 6.00 to 6.70.
Work on `N#Cc1ccc(F)cc1CSc1nc(N)nc2[nH]nnc12` [Example 157, 2-(((5-amino-3H-[1,2,3]triazolo[4,5-d]pyrimidin-7-yl)thio)methyl)-4-fluorobenzonitrile] yielded a pIC50 of 6.00 to 6.70.
In the case of `Cc1cc(CSc2cc(N)nc3[nH]nnc23)c(Cl)nc1Cl` [Example 24, 7-(((2,6-dichloro-5-methylpyridin-3-yl)methyl)thio)-3H-[1,2,3]triazolo[4,5-b]pyridin-5-amine], the pIC50 was 6.70 to 7.22.
Compound `CN(C)c1cccc(-n2cc(CSc3cc(N)nc4[nH]nnc34)c(C(F)(F)F)n2)n1` [Example 140, 7-(((1-(6-(dimethylamino)pyridin-2-yl)-3-(trifluoromethyl)-1H-pyrazol-4-yl)methyl)thio)-3H-[1,2,3]triazolo [4,5-b]pyridin-5-amine] has a pIC50 of 6.00 to 6.70.
Work on `N#Cc1cccc(F)c1CSc1nc(N)nc2[nH]nnc12` [Example 154, 2-(((5-Amino-3H-[1,2,3]triazolo[4,5-d]pyrimidin-7-yl)thio)methyl)-3-fluorobenzonitrile] yielded a pIC50 of 6.70 to 7.22.
Compound `Nc1cc(SC(CNCc2ccccc2)c2ccccc2)c2nn[nH]c2n1` (stereo not drawn) [Example 128, 7-((2-(Benzylamino)-1-phenylethyl)thio)-3H-[1,2,3]triazolo[4,5-b]pyridin-5-amine] has a pIC50 of 6.70 to 7.22.
For `Cc1oc(-c2c(F)cc(F)cc2F)nc1CSc1cc(N)nc2[nH]nnc12` [Example 37, 7-(((5-methyl-2-(2,4,6-trifluorophenyl)oxazol-4-yl)methyl)thio)-3H-[1,2,3] triazolo[4,5-b]pyridin-5-amine], the pIC50 was 6.00 to 6.70.
`Cc1nn(C2CC2)c(C)c1CSc1cc(N)nc2[nH]nnc12` [Example 81, 7-(((1-cyclopropyl-3,5-dimethyl-1H-pyrazol-4-yl)methyl)thio)-3H-[1,2,3] triazolo[4,5-b]pyridin-5-amine] was tested, and the pIC50 was 6.70 to 7.22.
In the case of `Nc1nc(SCc2ccccc2)c2nn[nH]c2n1` [Example 155, 7-(benzylthio)-3H-[1,2,3] triazolo[4,5-d]pyrimidin-5-amine], the pIC50 was 6.70 to 7.22.
`Nc1cc(SCc2ccc(S(N)(=O)=O)cc2Cl)c2nn[nH]c2n1` [Example 119, 4-(((5-amino-3H-[1,2,3]triazolo[4,5-b]pyridin-7-yl)thio)methyl)-3-chlorobenzenesulfonamide] was tested, and the pIC50 was 6.70 to 7.22.
For `Nc1cc(SCc2nn(Cc3ccccc3)c3ccccc23)c2nn[nH]c2n1` [Example 62, 7-(((1-benzyl-1H-indazol-3-yl)methyl)thio)-3H-[1,2,3] triazolo[4,5-b]pyridin-5-amine], the pIC50 was 6.70 to 7.22.
`Cc1nn(CC2CC2)c(C)c1CSc1cc(N)nc2[nH]nnc12` [Example 80, 7-(((1-(cyclopropylmethyl)-3,5-dimethyl-1H-pyrazol-4-yl)methyl)thio)-3H-[1,2,3] triazolo[4,5-b]pyridin-5-amine] was tested, and the pIC50 was 6.70 to 7.22.
For `Nc1cc(SCc2cccc(CN3CCCC3)c2)c2nn[nH]c2n1` [Example 15, 7-((3-(Pyrrolidin-1-ylmethyl)benzyl)thio)-3H-[1,2,3]triazolo[4,5-b]pyridin-5-amine], the pIC50 was ≥ 7.22.
`N#Cc1ccc(F)cc1CSc1cc(N)nc2[nH]nnc12` [Example 20, 2-(((5-amino-3H-[1,2,3]triazolo[4,5-b]pyridin-7-yl)thio)methyl)-4-fluorobenzonitrile] was tested, and the pIC50 was ≥ 7.22.
In the case of `Nc1cc(SCc2ccccc2OC(F)(F)F)c2nn[nH]c2n1` [Example 29, 7-((2-(trifluoromethoxy)benzyl)thio)-3H-[1,2,3] triazolo[4,5-b]pyridin-5-amine], the pIC50 was ≥ 7.22.
